Patent US5773421A, “Antifungal fusacandins” (Abbott Laboratories, priority 1995, dated 1998)
Converted amounts (≈) assume the structure as drawn. Like-named read-outs stand apart in the source and are kept apart here.

How the values were obtained:
[1] = MIC by broth dilution assay; format: cell-based; details: 144 h, Table 6d, no sorbitol, 2 ×10^5 organisms/mL
Experimental: Minimal inhibitory concentrations (MICs) were determined by a broth dilution assay described by Frost, D., Brandt, K., Cugier, D., and Goldman, R. in J. Antibiotics 48: 306-310 (1995) which is incorporated herein by reference. The final concentration of cells was 2 ×10^5 organisms/mL.

(1,3)-β-Glucan Synthase = molecular target: T1, (1,3)-β-Glucan Synthase (Candida albicans, UniProt O13428); experiment: In vitro inhibition of (1,3)-β-glucan synthase activity, microsomal enzyme preparation; format: biochemical; details: C. albicans CCH 442 microsomal enzyme
T1 construct: microsomal enzyme preparation C. albicans CCH 442; endogenous in cells; host or cells: Candida albicans CCH 442, microsomes
T1 sequence (O13428 1-1897): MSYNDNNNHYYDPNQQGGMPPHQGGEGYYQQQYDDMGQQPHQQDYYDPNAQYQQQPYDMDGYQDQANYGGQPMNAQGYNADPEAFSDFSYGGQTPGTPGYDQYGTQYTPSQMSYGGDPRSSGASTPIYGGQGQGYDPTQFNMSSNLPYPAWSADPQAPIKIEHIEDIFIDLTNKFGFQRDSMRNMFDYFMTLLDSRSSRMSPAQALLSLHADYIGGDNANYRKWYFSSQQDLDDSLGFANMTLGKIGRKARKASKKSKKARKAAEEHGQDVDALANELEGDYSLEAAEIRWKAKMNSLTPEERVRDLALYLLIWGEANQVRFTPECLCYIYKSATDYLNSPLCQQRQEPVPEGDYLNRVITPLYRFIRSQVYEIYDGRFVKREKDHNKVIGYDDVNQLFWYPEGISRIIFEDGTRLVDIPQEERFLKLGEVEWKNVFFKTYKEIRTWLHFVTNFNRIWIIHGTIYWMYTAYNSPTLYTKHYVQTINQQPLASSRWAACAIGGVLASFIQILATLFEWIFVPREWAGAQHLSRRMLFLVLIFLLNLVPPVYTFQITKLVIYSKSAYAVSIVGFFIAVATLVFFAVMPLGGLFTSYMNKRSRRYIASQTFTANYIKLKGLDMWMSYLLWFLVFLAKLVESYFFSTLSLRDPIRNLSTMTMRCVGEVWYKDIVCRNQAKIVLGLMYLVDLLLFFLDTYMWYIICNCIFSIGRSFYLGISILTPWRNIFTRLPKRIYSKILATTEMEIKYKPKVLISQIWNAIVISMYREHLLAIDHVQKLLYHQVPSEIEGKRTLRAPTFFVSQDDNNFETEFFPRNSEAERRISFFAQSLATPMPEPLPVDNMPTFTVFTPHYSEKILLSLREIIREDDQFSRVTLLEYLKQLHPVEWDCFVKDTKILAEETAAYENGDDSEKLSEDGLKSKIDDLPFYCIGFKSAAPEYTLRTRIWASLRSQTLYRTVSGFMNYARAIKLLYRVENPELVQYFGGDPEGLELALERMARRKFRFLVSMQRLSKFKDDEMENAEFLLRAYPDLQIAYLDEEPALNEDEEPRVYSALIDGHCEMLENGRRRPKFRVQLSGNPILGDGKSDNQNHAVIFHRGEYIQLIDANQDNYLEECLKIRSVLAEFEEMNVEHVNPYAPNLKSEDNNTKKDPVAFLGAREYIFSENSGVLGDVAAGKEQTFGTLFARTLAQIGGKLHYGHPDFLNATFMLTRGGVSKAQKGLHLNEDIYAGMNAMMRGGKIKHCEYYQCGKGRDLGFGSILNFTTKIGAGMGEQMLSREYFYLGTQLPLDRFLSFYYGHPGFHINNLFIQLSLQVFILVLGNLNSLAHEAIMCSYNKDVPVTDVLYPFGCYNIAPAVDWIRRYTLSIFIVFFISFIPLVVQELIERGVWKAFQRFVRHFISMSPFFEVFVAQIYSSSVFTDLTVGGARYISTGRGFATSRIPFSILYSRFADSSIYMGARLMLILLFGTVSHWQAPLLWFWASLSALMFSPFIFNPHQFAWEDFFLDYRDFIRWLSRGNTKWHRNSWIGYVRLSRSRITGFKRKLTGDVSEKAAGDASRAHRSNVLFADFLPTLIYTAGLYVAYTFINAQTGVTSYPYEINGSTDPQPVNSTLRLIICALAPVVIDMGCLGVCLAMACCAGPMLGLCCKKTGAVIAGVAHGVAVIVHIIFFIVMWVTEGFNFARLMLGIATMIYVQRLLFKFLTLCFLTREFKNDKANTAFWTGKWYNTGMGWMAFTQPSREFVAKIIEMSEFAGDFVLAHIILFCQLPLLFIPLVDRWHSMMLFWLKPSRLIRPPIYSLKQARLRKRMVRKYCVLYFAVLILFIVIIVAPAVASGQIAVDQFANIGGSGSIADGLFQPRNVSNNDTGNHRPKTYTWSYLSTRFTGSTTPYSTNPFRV
Experimental: The assay was conducted in a final volume of 100 μL of 2.0 mM UDP-[^14 C]-Glc (0.625 mCi/mmol), 1 mM EDTA, 8% (v/v) glycerol, 20 μM GTPgS, 0.5% Brij-35(v/v) or 0.8% BSA, 80 mM Tris/HCl, pH 7.75, and microsomal enzyme preparation C. albicans CCH 442 (100 μg of protein). A detailed description of this assay is described by Frost, D., Brandt, K. Capobioanco, and Goldman, R., Microbiology 140: 2239-2246 (1994) which is incorporated herein by reference.

[2] = test system: Streptococcus pyrogenes EES61; experiment: MIC by agar dilution method; format: cell-based; details: Streptococcus, EES61, 20 h
[3] = test system: Nocardia asteroides ATTC 9970; experiment: MIC by agar dilution method; format: cell-based; details: Nocardia asteroides, ATTC9970, 20 h
[4] = test system: Candida albicans ATCC 623; experiment: MIC by agar dilution method; format: cell-based; details: Candida albicans, ATCC623, 20 h
Experimental: (§1) Minimal inhibitory concentrations (MICs) were determined by an agar dilution method. The test compounds were serially diluted in MeOH and 0.2 mL portions were mixed with 20 mL of molten, cooled Sabouraud dextrose agar (Difco). Yeast cell inoculum was prepared by growing cultures on Sabouraud dextrose agar for 18 hours at 32° C. and suspending the cells in phosphate buffered saline. Filamentous fungi were grown under the same conditions for 4 days to obtain spores. The inoculum level for all cultures was adjusted to 10^4 cells using a Petroff-Hauser cell counter. The glutarimide antifungal compounds cycloheximide or amphotericin B were used as a control. Inoculated test plates were incubated at 32° C. and examined after 20 hours.

[5] = test system: Candida tropicalis NRRL-Y-1; experiment: MIC by agar dilution method; format: cell-based; details: Candida tropicalis, NRRLY1, 20 h
Experimental: as §1

[6] = test system: Torulopsis glabrata ATCC 155; experiment: MIC by agar dilution method; format: cell-based; details: Nakaseomyces glabratus, ATCC155, 20 h
Experimental: as §1

[7] = test system: Saccharomyces cereviseae GS1-36; experiment: MIC by agar dilution method; format: cell-based; details: Saccharomyces, GS136, 20 h
Experimental: as §1

Candida albicans CCH 442 = experiment: MIC by agar dilution method; format: cell-based
Experimental: as §1

[8] = test system: Aspergillus niger ATCC 164; experiment: MIC by agar dilution method; format: cell-based; details: Aspergillus niger, ATCC164, 20 h
Experimental: as §1

[9] = test system: Candida albicans ATCC 997; experiment: MIC by agar dilution method; format: cell-based; details: Candida albicans, ATCC997, 20 h
Experimental: as §1

[10] = test system: Streptococcus bovis A-5169; experiment: MIC by agar dilution method; format: cell-based; details: Streptococcus equinus, A5169, 20 h
[11] = test system: Staphylococcus aureus ATTC 6538p; experiment: MIC by agar dilution method; format: cell-based; details: Staphylococcus aureus, ATTC6538P, 20 h
[12] = test system: Candida albicans ATCC 38247; experiment: MIC by agar dilution method; format: cell-based; details: ATCC38247; Table 6c; IV Candida albicans ATCC 38247; agar dilution; read-out: MIC IV
Experimental: as §1

Candida albicans 579a = experiment: MIC by agar dilution method; format: cell-based; details: Table 6c; II Candida albicans 579a; agar dilution; read-out: MIC II
Experimental: as §1

[13] = test system: Candida albicans ATCC 62376; experiment: MIC by agar dilution method; format: cell-based; details: ATCC62376; Table 6c; V Candida albicans ATCC 62376; agar dilution; read-out: MIC V
Experimental: as §1

[14] = test system: Candida albicans ATCC 10231; experiment: MIC by agar dilution method; format: cell-based; details: ATCC10231; Table 6c; I Candida albicans ATCC 10231; agar dilution; read-out: MIC I
Experimental: as §1

[15] = CCH442, Table 6c, 3rd value column (head printed II), III Candida albicans CCH 442, agar dilution, read-out: MIC II

Structure (SMILES)	MIC (Candida albicans CCH 442; [15]) [µg/mL]	MIC [12] [µg/mL]	MIC (Candida albicans 579a) [µg/mL]	MIC [13] [µg/mL]	MIC [14] [µg/mL]	further results
CC/C=C/C/C=C\C=C\C(=O)OC[C@H]1O[C@@H](O[C@H]2[C@H](OC(=O)/C=C/C=C/CC(O)/C=C/C=C/CCCCC)[C@@H](O)[C@H](c3c(O)cc(O)cc3CO)O[C@@H]2CO)[C@H](O[C@@H]2O[C@H](CO)[C@H](O)[C@H](O)[C@H]2O)[C@@H](O)[C@H]1O (stereo partly drawn) [Example 9, fusacandin C]	–	–	–	–	–	MIC [1]: 1.95 µg/mL (≈ 1.91 µM); IC50 ((1,3)-β-Glucan Synthase; 0.5% Brij-35, read-out: IC50 With Brij-35 (converted)): 35 µM; IC50 ((1,3)-β-Glucan Synthase; 0.8% BSA, read-out: IC50 With BSA (converted)): 194 µM
C[C@@H]1C[C@@H]([C@H](O)CC2CC(=O)NC(=O)C2)C(=O)[C@@H](C)C1 [Cycloheximide, cycloheximide, reference compound]	–	–	–	–	–	MIC [2]: 50 µg/mL (≈ 178 µM); MIC [3]: 1.6 µg/mL (≈ 5.69 µM); MIC [4]: > 100 µg/mL; MIC [5]: 0.4 µg/mL (≈ 1.42 µM); MIC [6]: 0.4 µg/mL (≈ 1.42 µM); MIC [7]: < 0.05 µg/mL; MIC (Candida albicans CCH 442; Candida albicans, CCH442, 20 h): > 100 µg/mL; MIC [8]: 1.6 µg/mL (≈ 5.69 µM); MIC [9]: > 100 µg/mL; MIC [10]: 25 µg/mL (≈ 88.9 µM); MIC [11]: 0.8 µg/mL (≈ 2.84 µM)
CCCCC/C=C/C=C/[C@@H](O)C/C=C/C=C/C(=O)O[C@@H]1[C@@H](O)[C@H](c2c(O)cc(O)cc2CO)O[C@H](CO)[C@H]1O[C@@H]1O[C@H](COC(=O)c2ccc(-c3ccc(-c4ccccc4)cc3)cc2)[C@H](O)[C@H](O)[C@H]1O[C@@H]1O[C@H](CO)[C@H](O)[C@H](O)[C@H]1O [Example 33]	0.78 (≈ 0.691 µM)	3.12 (≈ 2.76 µM)	0.78 (≈ 0.691 µM)	0.78 (≈ 0.691 µM)	1.56 (≈ 1.38 µM)	–
CCCCC/C=C/C=C/[C@@H](O)C/C=C/C=C/C(=O)O[C@@H]1[C@@H](O)[C@H](c2c(O)cc(O)cc2CO)O[C@H](CO)[C@H]1O[C@@H]1O[C@H](COC(=O)c2ccc(-c3ccc(O)cc3)cc2)[C@H](O)[C@H](O)[C@H]1O[C@@H]1O[C@H](CO)[C@H](O)[C@H](O)[C@H]1O [Example 41]	6.25 (≈ 5.85 µM)	6.25 (≈ 5.85 µM)	6.25 (≈ 5.85 µM)	12.5 (≈ 11.7 µM)	12.5 (≈ 11.7 µM)	–
CCCCC/C=C/C=C/[C@@H](O)C/C=C/C=C/C(=O)O[C@@H]1[C@@H](O)[C@H](c2c(O)cc(O)cc2CO)O[C@H](CO)[C@H]1O[C@@H]1O[C@H](COC(=O)c2cccc3ccccc23)[C@H](O)[C@H](O)[C@H]1O[C@@H]1O[C@H](CO)[C@H](O)[C@H](O)[C@H]1O [Example 20]	3.12 (≈ 3.04 µM)	1.56 (≈ 1.52 µM)	3.12 (≈ 3.04 µM)	6.25 (≈ 6.09 µM)	3.12 (≈ 3.04 µM)	–
CCCCC/C=C/C=C/[C@@H](O)C/C=C/C=C/C(=O)O[C@@H]1[C@@H](O)[C@H](c2c(O)cc(O)cc2CO)O[C@H](CO)[C@H]1O[C@@H]1O[C@H](COC(=O)c2ccc(Oc3ccccc3)cc2)[C@H](O)[C@H](O)[C@H]1O[C@@H]1O[C@H](CO)[C@H](O)[C@H](O)[C@H]1O [Example 31]	3.12 (≈ 2.92 µM)	3.12 (≈ 2.92 µM)	1.56 (≈ 1.46 µM)	3.12 (≈ 2.92 µM)	3.12 (≈ 2.92 µM)	–
CCCCC/C=C/C=C/[C@@H](O)C/C=C/C=C/C(=O)O[C@@H]1[C@@H](O)[C@H](c2c(O)cc(O)cc2CO)O[C@H](CO)[C@H]1O[C@@H]1O[C@H](COC(=O)/C=C/c2cc(C(C)(C)C)cc(C(C)(C)C)c2)[C@H](O)[C@H](O)[C@H]1O[C@@H]1O[C@H](CO)[C@H](O)[C@H](O)[C@H]1O [Example 17]	3.12 (≈ 2.8 µM)	3.12 (≈ 2.8 µM)	3.12 (≈ 2.8 µM)	6.25 (≈ 5.6 µM)	6.25 (≈ 5.6 µM)	–
